Assays:
Assay type in all cases: cell-based
[1] = tested on: human subcutaneous pre-adipocytes; assay: Lipid accumulation in coculture of young and old human subcutaneous pre-adipocytes (Adipored staining); settings: 0.01 mg/ml; for %LA (percentage of lipid accumulation): 12 days, coculture of donor cells, respect to coculture control = 100
Description: In vitro effect of PEP-22 and PEP-23 in lipid accumulation in human subcutaneous pre-adipocytes.
Measurement of lipid accumulation in a coculture of young and old adipose cells indirectly evaluates the inhibition of SASP. A pool of old adipose cells has a higher number of senescent cells. When cocultured with young cells, lipid accumulation observed is below the theoretically expected levels due to a senescence induction effect of SASP from old to young adipocytes.
Induction of lipid accumulation by the peptides of the invention is evaluated by lipid fluorescent staining with Adipored® Assay Reagent. The aim of this study is to investigate the capacity of peptide candidates to induce lipid accumulation in human subcutaneous adipocytes, and therefore prevent adipocytes senescence.
Human subcutaneous pre-adipocytes (donors, Cell applications) cells are cocultured in 96-well plates at a density of 4×10^3 cells/well each age in Human Preadipocyte Growth Medium (Sigma). Monoculture of each age are seeded at a density of 8×10^3 cells/well as age lipid accumulation controls. After 24 hours incubation, differentiation of pre-adipocytes into adipocytes is induced by changing medium to fresh Human Preadipocyte Differentiation Medium (Promocell). At the same time, cocultured cells are treated with 0.01 mg/ml of peptides of the invention. Non-treated cocultured cells are used as basal control and monocultured young and old cells as age lipid accumulation controls. After 12 days of treatment and differentiation, cells are stained with Adipored® Assay Reagent (Lonza) following the manufacturer’s instructions. In brief, the plate is washed with Phosphate Buffer Saline (Sigma) and then Adipored® reagent and Hoechst 33342 (Life technologies) are added and incubated for 15 minutes at 37° C. Finally, fluorescence intensity and nuclei number are measured by Operetta (Perkin Elmer). Fluorescence is normalized by cell nuclei and results are represented respect to cocultured basal control. Abbreviations: % LA = Percentage of lipid accumulation; CC = Coculture control; YC = young control; OC = old control.

[2] = tested on: human neuroblastoma cell line (SH-SY5Y); assay: Inhibition of noradrenaline (NA) release from human neuroblastoma cells, ELISA; settings: SH-SY5Y, respect to basal control, mean of 3 assays
Description: Inhibition of noradrenaline release from human neuroblastoma cells.
Release of neurotransmitters by exocytosis in neuromuscular junctions from peripheral neurons to skeletal muscle allows muscle contraction. Face muscles are subject to said contraction and facial muscle contraction is more frequent around eyes, mouth and forehead than elsewhere in the face. With age, continuous release of neurotransmitters into neuromuscular junctions and decrease of elasticity contribute to the increase of facial wrinkles and permanent expression lines. Compounds able to block or decrease exocytosis on neuromuscular junction sites are thus good candidates for the cosmetic treatment of unaesthetic wrinkles. In vitro induction of the neurotransmitter Noradrenaline (NA) release in a human neuroblastoma cell line (SH-SY5Y) is considered a direct and reliable method for exocytosis measurement. The aim of this study is to evaluate the efficacy of the peptides of the invention on the inhibition of neuronal exocytosis by means of measuring the levels of NA release in SH-SY5Y cells by Enzyme-linked Immunosorbent Assay (ELISA).
SH-SY5Y (ECACC) cells are seeded in 12-well plates at a density of 1×10^6 cells/well. After a 6-day culture, medium is removed from wells and cells are treated for 60 minutes with the peptides of the invention dissolved in Hank’s Balanced Salt Solution (HBSS, Life Technologies) at 1 and 2.5 mg/ml. Cells treated with HBSS alone are used as a basal control. To mobilize NA vesicles, supernatants are removed and 100 nM Tetradecanoylphorbol-13-acetate (TPA, Sigma) is dissolved in the presence of test items in HBSS or dissolved in HBSS alone in the case of the basal control. After this, solutions with TPA are removed and NA release is induced by the addition of 10 µM lonomycin (Epica) with 100 nM TPA dissolved in the presence of test items in HBSS or dissolved in HBSS alone in the case of the basal control. Afterwards, the medium in the wells, containing released NA, is collected and centrifuged. Supernatants obtained are used for quantification of NA by ELISA with noradrenalin ELISA kit (IBL International) following manufacturer’s instructions. In brief, direct sandwich ELISA is performed with a plate pre-coated with an anti-NA antibody. The color obtained after substrate addition is directly proportional to the amount of NA present in each condition tested. Absorbance is read in a microplate absorbance reader (Clariostar™, BMG) at 405 nm. The percentage of NA release for each condition is calculated respect to basal control.

[3] = tested on: human muscular skeletal cells (hSKMC); assay: Alleviation of TNF-α induced muscle mass loss in human skeletal muscle cells by immunofluorescence; settings: for % Loss (muscle mass loss): 0.01 mg/ml peptide after 20 ng/ml TNFα, normalized to mass loss control (BC + TNF) = 100; for Mass loss compared to basal control treated with TNF-α (in words): 0.01 mg/ml, hSKMC
Method: In vitro alleviation of the effects of muscle mass loss induced in human skeletal muscle cells by immunofluorescence.
Muscle mass loss correction by the peptides of the invention is evaluated by an immunofluorescence assay. The aim of this study is to investigate the capacity of peptide candidates to alleviate muscular mass loss after treatment with TNF-α in human muscular skeletal cells (hSKMC), i.e., to reverse the adverse effects induced by TNF-α (a model of muscular ageing). Myosin heavy chain (MHyC) is used as a morphologic marker of differentiated myotubes allowing the measurement of their diameters, and this can be used to ascertain a degree of mass loss. Tumor necrosis factor α (TNF-α) has been described in the literature as a muscle mass loss inductor.
hSKMC (Tebu-Bio) are seeded in 96-well plates at a density of 1.5×10^4 cells/well in Skeletal Muscle Cell Growth Medium (Promocell). After 24 hours incubation, the medium is replaced with Skeletal Muscle Cell Differentiation Medium (Promocell) and cells are differentiated for 6 days. After this, muscular cells mass loss is induced by adding fresh differentiation medium with 20 ng/ml TNFα (Sigma). Non-TNFα treated cells are used as a basal control (BC). After 24 hours of mass loss induction, the culture medium is replaced in some of the well plates with fresh differentiation medium comprising 0.01 mg/ml of the peptides of the invention. TNFα treated cells which are not treated with peptides are used as a mass loss control (BC + TNF) and cells which are treated with neither the peptides of the invention nor TNFα are used as a basal mass loss control (BC). Treatment is renewed 24 hours later. After 24 hours after the second treatment, immunofluorescence is determined. Cells are fixed 15 minutes with 4% Paraformaldehyde (Sigma), permeated 15 minutes with 1% Triton X-100 (Sigma) and then blocked with 5% Bovine Serum Albumin (Sigma). Next, primary antibody Anti-MHyC mouse (1:100, Vitro) is added and incubated overnight at 4° C. After that, secondary antibody Alexa Fluor 488 goat anti-mouse IgG (1:250, Life Technologies) is added and incubated for 1 hour. Finally, myotube diameters are determined by imaging MHyC staining by Operetta™ (Perkin Elmer). Percentage of mass loss is automatically calculated with Harmony™ (Perkin Elmer) software by classifying myotubes according to their diameter using a mass loss threshold of 20 µm. The results are normalized to the mass loss control (BC + TNF).

| Substance | Lipid accumulation in adipocytes compared to coculture basal control (in words) [1] | %LA (percentage of lipid accumulation) [1] | % Released NA ([2]; 1 mg/ml) | % Released NA ([2]; 2.5 mg/ml) | % Loss (muscle mass loss) [3] | Mass loss compared to basal control treated with TNF-α (in words) [3] |
| --- | --- | --- | --- | --- | --- | --- |
| Ac-L-Arg-L-Arg-D-Gln-L-Met-L-Glu-L-Glu-NH2 [PEP-22] | increase lipid accumulation | 133.9% | 58.9% | 49.0% | 76.2% | alleviate mass loss |
| Ac-L-Arg-L-Arg-L-Gln-D-Met-L-Glu-L-Glu-NH2 [PEP-23] | increase lipid accumulation | 159.9% | 78.9% | 52.8% | 71.9% | alleviate mass loss |

From US20230190616A1, “COMPOUNDS USEFUL FOR THE TREATMENT AND/OR CARE OF THE SKIN, HAIR, NAILS AND/OR MUCOUS MEMBRANES” (LUBRIZOL ADVANCED MATERIALS, INC., priority 2018, published 2023)
